This passage reports encapsulating rate results from patent publication US20170027877A1, “DRUG COMPOSITION AND METHOD FOR PREPARING THE SAME” (priority 2015, published 2017).

A short description of the series: Test for encapsulating rate of drugs in nanoparticles encapsulating double drugs. It is filed as physicochemical. To be noted: trend as pH of the aqueous mixture solution increased (pH 7.5 to 11, FIG. 1). The procedure: The synthesized nanoparticles encapsulating double drugs were placed in a concentrating centrifuge tube, and perform centrifugation at a speed of 4,000 rpm for 30 minutes.
(1). Encapsulating Rate of Cisplatin
The clear solution in the concentrating centrifuge tube was diluted 20 folds and mixed with 0.14% solution of o-phenylenediamine in dimethylformamide at a ratio of 1:1, the mixture was heated at 100° C. for 30 minutes and then was cooled in a refrigerator at −20° C. for 10 minutes, finally, the solution was examined for the peak value at a wavelength of 705 nm with UV-visual spectrum, and content of non-encapsulated Cisplatin was converted from the peak value, thereby giving the encapsulating rate of Cisplatin.
(2). Encapsulating Rate Test of Demethoxycurcumin
The nanoparticles on the filter membrane of the concentrating centrifuge tube were re-dissolved in double-distilled water, the solution was mixed with methanol at a ratio of 1:1, and the mixture was analyzed using HPLC. The determination was performed at a flow rate of 1 mL/min under the detection condition at a wavelength of 425 nm, using C18 as stationary phase and acetonitrile-0.3% FA (50:50, v/v) as mobile phase, and the detection result was converted into the concentration of demethoxycurcumin to obtain the encapsulating rate of the drug.

Consider `N.N.[Cl][Pt][Cl]` [Cisplatin], for which the encapsulating rate result is “increased”.
